Key:
[1] = molecular target: T1, human μ opiate receptor (Homo sapiens, UniProt P35372); experiment: Affinity for the human μ opiate receptor ([3H]-naloxone displacement, CHO-K1 receptor membrane preparation, SPA); format: binding; conditions: test concentration of 1 μM; read-out: μ (binding on the μ opioid receptor, % inhibition)
T1 construct: purchased PerkinElmer Life Sciences, Zaventem, Belgium RB-HOM; host or cells: CHO-K1 cells (membrane preparation)
How it was run: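 CHO-K1 membranes expressing human μ receptor incubated 90 min at room temperature with 1 nmol/l [3H]-naloxone and WGA-SPA beads in 50 mmol/l Tris-HCl, 0.06% BSA; 100 μmol/l naloxone defines non-specific binding. Values are % inhibition of specific binding at 1 μM; IC50 converted to Ki by Cheng-Prusoff.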

[2] = molecular target: T2, serotonin (5-HT) reuptake (Rattus norvegicus, UniProt P31652); experiment: Inhibition of serotonin (5HT) reuptake in synaptosomes from rat brain; format: biochemical; conditions: test concentration of 10 μM; read-out: 5-HT (inhibition of reuptake of serotonin, % inhibition)
T2 construct: synaptosomes are freshly isolated from areas of the rat brain; from tissue; host or cells: rat brain synaptosomes (P2 fraction)
How it was run: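 Freshly isolated rat brain synaptosomes (P2 fraction) used for 5-HT reuptake. Test compound at 10 μM, activity given as % inhibition.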

T1 sequence (P35372 whole entry): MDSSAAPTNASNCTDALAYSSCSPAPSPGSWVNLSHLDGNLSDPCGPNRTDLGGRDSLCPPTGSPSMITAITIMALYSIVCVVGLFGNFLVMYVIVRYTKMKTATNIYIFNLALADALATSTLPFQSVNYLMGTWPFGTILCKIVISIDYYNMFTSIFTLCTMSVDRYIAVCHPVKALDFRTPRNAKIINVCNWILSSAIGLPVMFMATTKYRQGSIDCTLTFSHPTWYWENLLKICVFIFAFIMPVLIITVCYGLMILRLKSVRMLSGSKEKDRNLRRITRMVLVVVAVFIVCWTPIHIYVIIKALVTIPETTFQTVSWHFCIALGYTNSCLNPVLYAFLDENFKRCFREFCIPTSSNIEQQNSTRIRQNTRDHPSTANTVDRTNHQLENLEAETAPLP
T2 sequence (P31652 whole entry): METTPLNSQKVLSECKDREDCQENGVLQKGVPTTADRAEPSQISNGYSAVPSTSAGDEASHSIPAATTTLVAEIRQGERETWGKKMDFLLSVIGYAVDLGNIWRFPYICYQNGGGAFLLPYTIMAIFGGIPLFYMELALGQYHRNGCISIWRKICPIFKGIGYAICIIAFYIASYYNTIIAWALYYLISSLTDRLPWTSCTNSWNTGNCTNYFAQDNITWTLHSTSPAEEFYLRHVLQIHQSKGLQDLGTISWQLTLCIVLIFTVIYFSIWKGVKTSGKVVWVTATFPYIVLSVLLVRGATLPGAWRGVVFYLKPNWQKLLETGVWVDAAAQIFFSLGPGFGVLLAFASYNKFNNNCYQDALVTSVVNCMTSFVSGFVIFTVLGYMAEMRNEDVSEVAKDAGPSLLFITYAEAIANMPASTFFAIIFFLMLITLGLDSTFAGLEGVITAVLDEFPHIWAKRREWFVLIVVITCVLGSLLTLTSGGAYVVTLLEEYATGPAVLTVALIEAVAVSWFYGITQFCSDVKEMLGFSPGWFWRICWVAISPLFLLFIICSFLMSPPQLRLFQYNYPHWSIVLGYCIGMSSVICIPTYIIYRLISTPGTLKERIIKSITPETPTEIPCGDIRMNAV

| Structure (SMILES) | inhibition at 1 µM [1] [%] | inhibition at 10 µM [2] [%] |
| --- | --- | --- |
| CN(C)C(c1cccs1)C1CCC(NC(=O)COCCN(C)S(=O)(=O)c2cccc(C(F)(F)F)c2)CC1 (stereo not shown) [Example 152, N-(4-((dimethylamino)(thiophen-2-yl)methyl)cyclohexyl)-2-(2-(N-methyl-3-(trifluoromethyl)phenylsulfonamido)ethoxy)acetamide] | 89 | 87 |
| CN(C)C(c1ccccc1)C1CCC(NC(=O)COCCN(C)S(=O)(=O)c2ccc(Cl)cc2Cl)CC1 (stereo not shown) [Example 33, 2-(2-(2,4-dichloro-N-methylphenylsulfonamido)ethoxy)-N-(4-((dimethylamino)(phenyl)methyl)cyclohexyl)acetamide] | 49 | 73 |
| COc1ccc(S(=O)(=O)N2CCC(OCC(=O)NCC3CCC(C(c4ccccc4)N(C)C)CC3)C2)cc1OC (stereo not shown) [Example 22, 2-(1-(3,4-dimethoxyphenylsulfonyl)pyrrolidin-3-yloxy)-N-((4-((dimethylamino)(phenyl)methyl)cyclohexyl)methyl)acetamide] | 97 | 87 |
| COc1ccc(S(=O)(=O)N2CCC(OCC(=O)NC3CCC(C(c4cccs4)N(C)C)CC3)C2)cc1OC (stereo not shown) [Example 155, 2-(1-(3,4-dimethoxyphenylsulfonyl)pyrrolidin-3-yloxy)-N-(4-((dimethylamino)(thiophen-2-yl)methyl)cyclohexyl)acetamide] | 88 | 87 |
| COc1cc(C)c(S(=O)(=O)N2CCC(OCC(=O)NCC3CCC(C(c4ccccc4)N(C)C)CC3)CC2)c(C)c1C (stereo not shown) [Example 143, N-((4-((dimethylamino)(phenyl)methyl)cyclohexyl)methyl)-2-(1-(4-methoxy-2,3,6-trimethylphenylsulfonyl)piperidin-4-yloxy)acetamide] | 89 | 93 |
| Cc1ccc(S(=O)(=O)N2CCC(OCC(=O)NC3CCC(C(c4cccs4)N(C)C)CC3)C2)cc1 (stereo not shown) [Example 156, N-(4-((dimethylamino)(thiophen-2-yl)methyl)cyclohexyl)-2-(1-tosylpyrrolidin-3-yloxy)acetamide] | 80 | 87 |
| CN(C)C(c1ccccc1)C1CCC(CNC(=O)COCCN(C)S(=O)(=O)c2c(Cl)cc(Cl)cc2Cl)CC1 (stereo not shown) [Example 14, N-((4-((dimethylamino)(phenyl)methyl)cyclohexyl)methyl)-2-(2-(2,4,6-trichloro-N-methylphenylsulfonamido)ethoxy)acetamide] | 98 | 99 |
| CN(C)C(c1cccs1)C1CCC(CNC(=O)COC2CCCCC2N(C)S(=O)(=O)c2ccc(Cl)c(Cl)c2)CC1 (stereo not shown) [Example 31, 2-(2-(3,4-dichloro-N-methylphenylsulfonamido)cyclohexyloxy)-N-((4-((dimethylamino)(thiophen-2-yl)methyl)cyclohexyl)methyl)acetamide] | 97 | 88 |
| Cc1cc(C)c(S(=O)(=O)N2CCC(OCC(=O)NC3CCC(C(c4cccc(F)c4)N(C)C)CC3)C2)c(C)c1 (stereo not shown) [Example 140, N-(4-((dimethylamino)(3-fluorophenyl)methyl)cyclohexyl)-2-(1-(mesitylsulfonyl)pyrrolidin-3-yloxy)acetamide] | 83 | 72 |
| COc1ccc(S(=O)(=O)N2CCCCC2COCC(=O)NCC2CCC(C(c3cccc(F)c3)N(C)C)CC2)cc1 (stereo not shown) [Example 179, N-((4-((dimethylamino)(3-fluorophenyl)methyl)cyclohexyl)methyl)-2-((1-(4-methoxyphenylsulfonyl)piperidin-2-yl)methoxy)acetamide] | 85 | 92 |
| CN(C)C(c1cccs1)C1CCC(CCNC(=O)COC2CCN(S(=O)(=O)c3ccc(F)cc3)C2)CC1 (stereo not shown) [Example 138, N-(2-(4-((dimethylamino)(thiophen-2-yl)methyl)cyclohexyl)ethyl)-2-(1-(4-fluorophenylsulfonyl)pyrrolidin-3-yloxy)acetamide] | 87 | 98 |
| CN(C)C(c1ccccc1)C1CCC(NC(=O)COCCN(C)S(=O)(=O)c2c(F)c(F)c(F)c(F)c2F)CC1 (stereo not shown) [Example 136, N-(4-((dimethylamino)(phenyl)methyl)cyclohexyl)-2-(2-(2,3,4,5,6-pentafluoro-N-methylphenylsulfonamido)ethoxy)acetamide] | 89 | 83 |
| COc1ccc(S(=O)(=O)N2CCCCC2COCC(=O)NCC2CCC(C(c3ccccc3)N(C)C)CC2)cc1OC (stereo not shown) [Example 150, 2-((1-(3,4-Dimethoxyphenylsulfonyl)piperidin-2-yl)methoxy)-N-((4-((dimethylamino)(phenyl)methyl)cyclohexyl)methyl)acetamide] | 86 | 94 |
| COc1ccc(S(=O)(=O)N2CCC(OCC(=O)NCC3CCC(C(c4cccc(F)c4)N(C)C)CC3)C2)cc1OC (stereo not shown) [Example 184, 2-(1-(3,4-dimethoxyphenylsulfonyl)pyrrolidin-3-yloxy)-N-((4-((dimethylamino)(3-fluorophenyl)methyl)cyclohexyl)methyl)acetamide] | 91 | 88 |
| COc1cc(C)c(S(=O)(=O)N(C)CCOCC(=O)NCCC2CCC(C(c3cccc(F)c3)N(C)C)CC2)c(C)c1 (stereo not shown) [Example 197, N-(2-(4-((dimethylamino)(3-fluorophenyl)methyl)cyclohexyl)ethyl)-2-(2-(4-methoxy-N,2,6-trimethylphenylsulfonamido)ethoxy)acetamide] | 85 | 85 |
| COc1cc(C)c(S(=O)(=O)N(CCOCC(=O)NCC2CCC(C(c3ccccc3)N(C)C)CC2)Cc2ccccc2)c(C)c1 (stereo not shown) [Example 148, 2-(2-(N-benzyl-4-methoxy-2,6-dimethylphenylsulfonamido)ethoxy)-N-((4-((dimethylamino)(phenyl)methyl)cyclohexyl)methyl)acetamide] | 90 | 95 |
| CN(C)C(c1ccccc1)C1CCC(CNC(=O)COCCN(C)S(=O)(=O)c2c(Cl)cccc2Cl)CC1 (stereo not shown) [Example 13, 2-(2-(2,6-dichloro-N-methylphenylsulfonamido)ethoxy)-N-((4-((dimethylamino)(phenyl)methyl)cyclohexyl)methyl)acetamide] | 98 | 84 |
| COc1ccc(S(=O)(=O)N2CCCCC2COCC(=O)NCCC2CCC(C(c3cccs3)N(C)C)CC2)cc1 (stereo not shown) [Example 30, N-(2-(4-((dimethylamino)(thiophen-2-yl)methyl)cyclohexyl)ethyl)-2-((1-(4-methoxyphenylsulfonyl)piperidin-2-yl)methoxy)acetamide] | 97 | 98 |
| CN(C)C(c1cccc(F)c1)C1CCC(CNC(=O)COC2CCCCC2N(C)S(=O)(=O)c2ccc(Cl)c(Cl)c2)CC1 (stereo not shown) [Example 164, 2-(2-(3,4-dichloro-N-methylphenylsulfonamido)cyclohexyloxy)-N-((4-((dimethylamino)(3-fluorophenyl)methyl)cyclohexyl)methyl)acetamide] | 86 | 90 |
| CN(C)C(c1cccc(F)c1)C1CCC(CNC(=O)COC2CCN(S(=O)(=O)c3cccc(C(F)(F)F)c3)C2)CC1 (stereo not shown) [Example 170, N-((4-((dimethylamino)(3-fluorophenyl)methyl)cyclohexyl)methyl)-2-(1-(3-(trifluoromethyl)phenylsulfonyl)pyrrolidin-3-yloxy)acetamide] | 83 | 89 |
